Laboratory results published in US4965280A, “Antifungal carbinols” (E. I. Du Pont de Nemours and Company, priority 1989, dated 1990).
Values after ≈ are worked out from the molar mass of the structure shown. Where two headings read alike, the source gives them in different places.

Key:
Venturia inaequalis = experiment: Example A apple scab; type: in vivo; conditions: read-out: disease control rating, Ex. A
Method: (§1) The test compounds were dissolved in acetone in an amount equal to 6% of the final volume and then suspended at a concentration of 100 or 20 ppm in purified water containing 250 ppm of the surfactant TREM 014 (polyhydric alcohol esters). This suspension was sprayed to the point of run-off on apple seedings.

Phytophthora infestans = experiment: whole plant or invertebrate; type: in vivo; conditions: for pest or weed control at 100 ppm: Phytophthora infestans, in Solanum lycopersicum, read-out: disease control rating, Ex. H, 100 PPM
[1] = system: Cercosporidium personatum; experiment: Example B Peanut Late Leafspot; type: in vivo; conditions: Nothopassalora personata, read-out: disease control rating, Ex. B
Method: as §1, with “peanut seedlings.” for “apple seedings.”

Puccinia recondita = experiment: Example G wheat leaf rust; type: in vivo; conditions: read-out: disease control rating, Ex. G
Botrytis cinerea = experiment: Example C bean grey mold; type: in vivo; conditions: for pest or weed control at 20 ppm / pest or weed control at 100 ppm: Botrytis cinerea, 24 h, read-out: disease control rating, Ex. C
Method: as §1, with “broad bean seedlings.” for “apple seedings.”

[2] = system: Erysiphe graminis f. sp. tritici; experiment: Example D wheat powdery mildew; type: in vivo; conditions: Blumeria graminis, 144 h, read-out: disease control rating, Ex. D
Method: as §1, with “wheat seedlings.” for “apple seedings.”

Plasmorpara viticola = experiment: Example I grape downy mildew; type: in vivo; conditions: for pest or weed control at 100 ppm: read-out: disease control rating, Ex. I
Method: as §1, with “grape seedlings.” for “apple seedings.”

[3] = system: Candida albicans ATCC 11651; experiment: In vivo systemic Candida infection in mice, primary assay; design: species or system Candida albicans; CF-1 female mice; conditions: 150 mg/kg per day; for responders at 150 mg/kg: Candida albicans, read-out: % Survival
Source text: The […] activity of test compounds is based on the percent (%) survival of infected animals receiving test or standard agent compared to that in an infected untreated group (Table 6). The in vivo assays are chronic systemic infections lethal to mice within 7 days post infection, [J. Barnes, et al. Lab Investigation, 49 460-467 (1963), and T. Rogers and E. Balish, Infection and Immunity, 14 33-38 (1976)].
Candida albicans ATCC 11651, from a frozen stock culture (10^9 organisms/ml) maintained at -70°, is diluted in saline to 1×10^7 organisms/ml and 0.2 ml inoculated intravenously (caudal vein) into 20.0 gm CF-1 female mice (Charles River).
Test compounds are routinely solubilized in 0.25% (w/v) methylcellulose (Methocel®) but for those compounds difficult to solubilize 10% (w/v) Emulophor® (EL620 GAF Corp.) is used. The standard antifungal agents, amphotericin B (Fungizone®) in water and ketoconazole (Nizoral®) in Methocel®, are administered at 1.0 mg/kg/day and 150 mg/kg/day, respectively.
In a primary assay, mice (10 per group) are infected with C. albicans, and receive test compounds at 50 or 150 mg/kg/day via the subcutaneous route. Animals are dosed with the test compound at 1 and 6 hour post-infection and then once daily for the next three days. Survival of mice in each group is recorded for 21 days.
Compounds which protect ≥70% of the infected animals for 14 days at a dose 150 mg/kg/day or less are viewed as active.

Pyricularia oryzae = experiment: whole plant or invertebrate; type: in vivo; conditions: for pest or weed control at 20 ppm / pest or weed control at 100 ppm: Pyricularia oryzae, 120 h; for pest or weed control at 20 ppm: read-out: disease control rating, Ex. E, 20 PPM; for pest or weed control at 100 ppm: read-out: disease control rating, Ex. E, 100 PPM
[4] = system: Aspergillus fumigatus ATCC 28214; experiment: In vitro antifungal MIC, microtiter broth dilution; conditions: for MIC: Aspergillus fumigatus, ATCC28214, 24 h, read-out: MIC values, A. fumigatus, 30°, 24 hours
Method: (§2) In vitro activity (Table 5) is expressed in terms of the minimal inhibitory concentration (MIC) of the test compound which inhibits the growth of yeasts and fungi.
(§3) The target organisms, Candida albicans ATCC 11651 and Aspergillus fumigatus ATCC 28214 are standardized, [V. Bezjak, J. Clinical Micro., 21 509-512 (1984)], to a concentration of 10^7 organisms/ml and maintained at -70° until use. Test compounds are solubilized in dimethyl sulfoxide (DMSO) and diluted in Eagle's Minimum Essential Medium (EMEM) broth to achieve a final concentration of 200 μg/ml. Stock solutions of standard antifungal agents are stored at -70° and diluted in EMEM as required.
(§4) The in vitro assay utilizes a microtiter broth dilution technique [L. Polonelli and G. Morace, Mycopathologia, 86, 21-28 (1984)] and C. […] The appropriate wells are inoculated with the required organism (C. albicans at 1×10^4 organisms/ml and A. fumigatus at 5×10^5 organisms/ml) and the assay incubated at 30° for 24 hours.

[5] = system: Candida albicans ATCC 11651; experiment: In vitro antifungal MIC, microtiter broth dilution; conditions: for MIC: Candida albicans, ATCC11651, 24 h, read-out: MIC values, C. albicans, 30°, 24 hours
Method: as §2, §3, §4

Rhizoctonia solani = experiment: Example F rice sheath blight; type: in vivo; conditions: for pest or weed control at 20 ppm / pest or weed control at 100 ppm: Rhizoctonia solani, 144 h, read-out: disease control rating, Ex. F
Method: as §1, with “rice seedlings.” for “apple seedings.”

Compound | pest or weed control at 20 ppm (Venturia inaequalis) [%] | pest or weed control at 20 ppm [1] [%] | pest or weed control at 20 ppm (Puccinia recondita) [%] | pest or weed control at 20 ppm (Botrytis cinerea) [%] | pest or weed control at 20 ppm [2] [%] | pest or weed control at 20 ppm (Pyricularia oryzae) [%] | pest or weed control at 20 ppm (Rhizoctonia solani) [%] | pest or weed control at 100 ppm (Phytophthora infestans) [%] | pest or weed control at 100 ppm (Botrytis cinerea; 100 PPM) [%] | pest or weed control at 100 ppm [2] [%] | pest or weed control at 100 ppm (Plasmorpara viticola) [%] | responders at 150 mg/kg ([3]; ATCC11651, 168 h, day 7) [%] | responders at 150 mg/kg ([3]; ATCC11651, 336 h, day 14) [%] | responders at 150 mg/kg ([3]; ATCC11651, 504 h, day 21) [%] | pest or weed control at 100 ppm (Pyricularia oryzae) [%] | MIC [4] [µg/mL] | MIC [5] [µg/mL] | pest or weed control at 100 ppm (Rhizoctonia solani; 100 PPM) [%] | other results
C=C(c1ccc(F)cc1)C(O)(Cn1cncn1)c1ccc(F)cc1 (single isomer, unassigned) [Example 1277a] | 58 | 74 | 100 | 24 | 95 | 1 | 0 |  |  |  |  |  |  |  |  |  |  |  | disease control rating, Ex. H (Phytophthora infestans; 100 PPM): 8%; disease control rating, Ex. C (Botrytis cinerea; 100 PPM): 36%; disease control rating, Ex. I (Plasmorpara viticola; 100 PPM): 31%; % Survival ([3]; day 7): 80%; % Survival ([3]; day 14): 0%; % Survival ([3]; day 21): 0%; disease control rating, Ex. E (Pyricularia oryzae; 100 PPM): 1%; MIC values, A. fumigatus ([4]; 30°, 24 hours): 100 µg/mL (≈ 305 µM); MIC values, C. albicans ([5]; 30°, 24 hours): 6.3 µg/mL (≈ 19.2 µM); disease control rating, Ex. F (Rhizoctonia solani; 100 PPM): 52%
C=C(c1cccc(Cl)c1)C(O)(Cn1cncn1)c1ccc(F)cc1F (stereo not shown) [Example 42] | 29 | 100 | 100 | 38 | 98 | 15 | 0 | 0 | 100 | 100 | 23 | 80 | 80 | 50 | 31 | 6.3 (≈ 17.4 µM) | 0.03 (≈ 0.0829 µM) | 41 | 
C=C(c1cccc(Cl)c1)C(O)(Cn1cncn1)c1ccccc1F (stereo not shown) [Example 47] | 93 | 100 | 100 | 26 | 98 | 15 | 0 | 0 | 89 |  | 25 | 90 | 80 | 30 | 31 | 1.6 (≈ 4.65 µM) | 0.03 (≈ 0.0873 µM) | 47 | 
C=C(c1ccc(SC)cc1)C(O)(Cn1cncn1)c1ccc(F)cc1 (stereo not shown) [Example 163] | 0 | 81 | 99 | 58 | 23 | 5 | 0 | 0 | 95 |  | 0 | 90 | 60 | 40 | 5 | 12.5 (≈ 35.2 µM) | 0.03 (≈ 0.0844 µM) | 0 | 
C=C(c1ccc(SC)cc1)C(O)(Cn1cncn1)c1ccc(F)cc1F (stereo not shown) [Example 164] | 82 | 100 | 100 | 57 | 88 | 5 | 0 | 8 | 84 |  | 0 | 100 | 80 | 70 | 15 | 1.6 (≈ 4.28 µM) | 0.03 (≈ 0.0803 µM) | 0 | 
C=C(c1ccc([S+](C)[O-])cc1)C(O)(Cn1cncn1)c1ccc(F)cc1 (stereo not shown) [Example 170] | 19 | 69 | 100 | 32 | 95 | 0 | 0 | 0 | 20 |  | 0 |  |  |  | 10 | 100 (≈ 269 µM) | 1.6 (≈ 4.31 µM) | 0 | 
C=C(c1ccc(S(C)(=O)=O)cc1)C(O)(Cn1cncn1)c1ccc(F)cc1 (stereo not shown) [Example 177] | 82 | 26 | 100 | 50 | 46 | 0 | 0 | 0 | 26 |  | 0 |  |  |  | 10 | > 100 | 3.2 (≈ 8.26 µM) | 0 | 
OC(Cn1cncn1)(C(=Cc1ccccc1)c1ccccc1)c1ccc(F)cc1 (stereo not shown) [Example 291] | 32 | 26 | 73 | 6 | 83 | 1 | 0 | 24 | 81 |  | 78 |  |  |  | 1 | 100 (≈ 259 µM) | 0.2 (≈ 0.519 µM) | 0 | 
C=C(CN(C)C)C(O)(Cn1cncn1)c1ccc(F)cc1 (stereo not shown) [Example 454] |  |  |  |  |  |  |  | 0 | 0 | 22 | 0 |  |  |  | 0 | > 100 | 100 (≈ 344 µM) | 0 | pest or weed control at 100 ppm (Venturia inaequalis): 0%; pest or weed control at 100 ppm [1]: 0%; pest or weed control at 100 ppm (Puccinia recondita): 0%
C=C(c1ccc(F)cc1)C(O)(Cn1cncn1)c1ccc(OC)cc1 (stereo not shown) [Example 663] |  |  |  |  |  |  |  | 0 | 95 | 99 | 39 |  |  |  | 57 |  |  | 36 | pest or weed control at 100 ppm (Venturia inaequalis): 42%; pest or weed control at 100 ppm [1]: 100%; pest or weed control at 100 ppm (Puccinia recondita): 100%
